Key:
[1] = Particle size and polydispersity index (PDI) of nanolipid particles, dynamic light scattering; type: physicochemical; details: LNP formulation prepared from the named cationic lipid, 25° C
Protocol: The particle size and polydispersity index (PDI) were determined by dynamic light scattering method using a Malvern laser particle size analyzer. 10 μL of liposome solution was diluted to 1 mL with RNase-free deionized water and added to a sample pool. Each sample was measured three times. The measurement conditions were: 90° scattering angle, 25° C.

[2] = Encapsulation rate, drug loading concentration and total RNA concentration detection (RiboGreen); type: physicochemical; details: LNP formulation of the named lipid
293T cells [3] = assay: Fluorescence detection of Fluc-mRNA (cell transfection efficiency of LNP formulations); type: cell-based; details: for Relative light unit (RLU): LNP containing 0.3 μg Fluc-mRNA, 24 hours; for Multiples of values that equivalent to YK-201: RLU of YK-201 / RLU of the named lipid; for Multiples of values that equivalent to YK-202: RLU of YK-202 / RLU of the named lipid; for Ratio relative to SM-102: RLU of the named lipid / RLU of SM-102, times that of SM-102
In short: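 293T cells at 10,000 per well, adhered overnight, then given LNPs carrying 0.3 μg Fluc-mRNA (cationic:neutral:structured:polymer-conjugated lipid 49:10:39.5:1.5 molar). After 24 h, luciferase signal read with luciferase kit reagents on an IVIS imaging system as transfection efficiency.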

293T cells [4] = assay: Cell survival rate assay (CCK-8); type: cell-based; details: LNP containing 1.5 μg Fluc-mRNA, 24 hours, CCK-8
In short: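 293T cells seeded at 10,000 per well and grown overnight, then exposed for 24 h to LNPs (cationic/neutral/structured/PEG lipids 49:10:39.5:1.5) carrying 1.5 μg Fluc-mRNA, or Lipofectamine 3000. Viability read by CCK-8, 1 h incubation, absorbance at 450 nm.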

female BALB/C mice = assay: Mouse in vivo imaging of Fluc-mRNA LNP formulations; set-up: average radiation intensity (mRNA expression): unit not given here; details: 10 μg Fluc-mRNA LNP intramuscularly
In short: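 Female BALB/C mice (4–6 weeks, 17–19 g) received LNP carrying 10 μg Fluc-mRNA intramuscularly. Imaging substrate given intraperitoneally at 6 h, 24 h, 48 h and 7 d; after 5 min free movement, average radiance read by IVIS Spectrum imaging.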

Row | SMILES | PDI [1] | Particle size [1] | Drug loading concentration [2] | Encapsulation rate [2] | Total RNA concentration [2] | Relative light unit (RLU) (293T cells [3]) | Multiples of values that equivalent to YK-201 (293T cells [3]) | Multiples of values that equivalent to YK-202 (293T cells [3]) | Ratio relative to SM-102 (293T cells [3]) | Cell survival rate (293T cells [4]) | average radiation intensity (mRNA expression) (female BALB/C mice; 6 h) | average radiation intensity (mRNA expression) (female BALB/C mice; 24 h) | average radiation intensity (mRNA expression) (female BALB/C mice; 48 h) | average radiation intensity (mRNA expression) (female BALB/C mice; 7 d) | Multiples of values that equivalent to YK-209 (293T cells [3]; RLU of YK-209 / RLU of the named lipid)
1 | CCCCCCC(CCCCCC)CCOC(=O)CCCCCCCN(CCO)CCCCCCCC(=O)OCCC(CCCCCC)CCCCCC [Compound 23, bis(3-hexylnonyl)8,8′-((2-hydroxyethyl)azadialkyl)dioctanoate, reference compound] | 8.6% | 138 nm | 20.7 µg/mL | 55.2% | 32.51 µg/mL | 1332014 RLU | 21.38 | 22.49 | 0.80 | 70.10% | 594050 | 110870 | 32074 | 5827 | 
2 | CCCCCCCCC(CCCCCCCC)COC(=O)CCCCCN(CCCCCC(=O)OCC(CCCCCCCC)CCCCCCCC)CCN(C)CCNC [YK-223] | 25.8% | 211 nm | 37.51 µg/mL | 98.3% | 38.16 µg/mL | 75012 RLU | 379.71 | 399.37 | 0.05 | 36.64% | 10355 | 1786 | 678 | 440 | 280.74
3 | CCCCCCCCCCCOC(=O)CCCCCN(CCO)CCCCCCCC(=O)OC(CCCCCCCC)CCCCCCCC [SM-102, reference compound] | 19.2% | 145 nm | 25.44 µg/mL | 62.3% | 35.27 µg/mL | 1665874 RLU | 17.10 | 17.98 | 1.00 | 68.55% | 678870 | 115800 | 30560 | 5903 | 

Source: patent US20260007601A1, “IONIZABLE CATIONIC LIPID COMPOUND AND COMPOSITION FOR DELIVERING NUCLEIC ACID AND USE THEREOF” (BEIJING YOUCAREKECHUANG PHARMACEUTICAL TECHNOLOGY CO., LTD., priority 2023, published 2026)
